Laboratory results reported in patent US4265886A, “Spiroketalins and their applications” (Roecar Holdings (Netherlands Antilles (NV), priority 1978, dated 1981).
≈ marks a conversion by molar mass, not a printed value. Like-named read-outs stand apart in the source and are kept apart here.

Columns and labels:
[1] = test system: yeast-induced hind paw oedema; test: yeast-induced acute paw oedema in rats; format: in vivo, rat; conditions: 500-1000 mg/kg orally or 50-100 mg/kg intraperitoneally, 24 hours before 2% yeast suspension
Experimental: The oral effectiveness of an anti-inflammatory agent is readily shown by administering it to animals (e.g. rats) either orally or parenterally before one of their hind paws is injected with a solution or suspension of an inflammation inducing substance such as kaolin, egg white, formaldehyde, carageenin or yeast. […] Distinct reductions in the acute oedema formation of between 10-40% were observed depending on the dose and route of administration. In order to achieve such reduction with the glucosides of diosgenin, hecogenin and tigogenin doses of 500-1000 mg/kg body mass orally or 50-100 mg/kg intraperitoneally had been administered, 24 hours before the animals were challenged with fresh 2% yeast suspension in physiological saline.

[2] = test system: erysipelas-induced arthritis (aortic thrombi); test: erysipelas-induced arthritis in the rat: aortic thrombi; format: in vivo, rat (male Wistar); conditions: 3×10 mg/kg per day, 5× per week; for AORTIC THROMBI Present in % of rats: control 90; for AORTIC THROMBI Degree of severity: key 0=No change, 1=Very slight, 2=Slight to medium, 3=Medium to severe, 4=Severe changes, control 2,60 (± 1,35)
Experimental: (§1) The investigation was carried out according to Schulze et al (17 in Betr. Path., 1975, 154, 1-26 and 27-51). Erysipelas arthritis is reproducible in nearly 100% of the rats given a single subcutaneous injection of E. insidiosa. Erysipelas arthritis always afflicts several joints with the same intensity in both major and minor limb joints, besides the coagulopathy and the pathological changes produced in the cardio-vascular system. Proliferating processes occur after 3 months in all surviving animals subjected to experimental erysipelas arthritis.
(§2) In order to test the spiroketalins of this invention the following parameters of the erysepilas arthritis model were used to evaluate their activities:
Fibrin-rich thrombi develop on aorta intima between the 6th and 11th day. The largest spread extended area can be observed around the 8th day.
(§3) Male Wistar rats between 155-185 g were used for these trials. The animals, kept in single cages, received a standard rat diet (Ssniff R) and water ad libitum. Room temperature was kept at 22° C., and the relative humidity varied between 50-60%. Daily illumination lasted for 12 hours. The animals had been acclimatized for 10 days prior to the commencement of the investigation.
(§4) An erysopelothrix insidiosa serotype B-strain T28 was used to challenge the animals and a single 2 ml dose (ca 100-200 million germs) was administered subcutaneously. The examined spiroketalins were suspended in sterile physiological saline and administered at the rate of 3×10 mg/kg per day. Treatment continued from the day of challenge, either to the end of the trial or the death of an animal, at the rate of 5×per week.
The parameters for aorta thrombi have been evaluated according to the following key originally described by Schulz et al. Beitrag. Path., 154, 1-26 and 27-51, 1975.
KEY FOR CLINICAL AORTA THROMBI FINDINGS
2=Slight to medium changes
3=Medium to severe changes

[3] = test system: erysipelas-induced arthritis (corneal lesions); test: erysipelas-induced arthritis in the rat: corneal lesions (opaquacy); format: in vivo, rat (male Wistar); conditions: for CORNEAL LESIONS Degree of severity: 3×10 mg/kg per day, 5× per week, control 2,34; for CORNEAL LESIONS Present in % of rats, day 1: control 0; for CORNEAL LESIONS Present in % of rats, day 6 / CORNEAL LESIONS Present in % of rats, day 8 / CORNEAL LESIONS Present in % of rats, day 12 / CORNEAL LESIONS Present in % of rats, day 15 / CORNEAL LESIONS Present in % of rats, day 19 / CORNEAL LESIONS Present in % of rats, day 20: control 100
Experimental: as §1, §2
Inflammation opaquacy appears in the cornea around the 8th day.
as §3, §4

Sprague-Dawley rats [4] = test: single oral dose animal toxicity, 14 day observation; format: in vivo, rat (male Sprague-Dawley); conditions: single oral doses of 125,0; 312,5; 625,0 and 1250 mg/kg
Experimental: Individually housed groups of ten male Sprague-Dawley rats were treated orally with single doses of hecogenin 3-β-D-glucoside or diosgenin 3β-D-glucoside. The poorly water soluble test substances were made up in an aqueous Tylose^R dispersion for homogeneity.
A suitable concentration which allowed the administration of the relevant dose at the rate of 1,0 ml/100 g body weight was prepared immediately before use. Doses ranging from 125 mg/kg to 1250 mg/kg of the agents were tested. The observation period was 14 days after which the animals were sacrificed and a macroscopic examination of some tissues was carried out. Food and water was offered ad libitum.

Sprague-Dawley rats [5] = test: 100 day feeding study, 0,1% in standard laboratory chow; format: in vivo, rat (male Sprague-Dawley); conditions: for mortality: 100 day observation period
Description: (b) Standard laboratory chow was thoroughly mixed with 0,1% diosgenyl glucoside or hecogenyl glucoside and the mixtures were fed to groups of 20 young male Sprague-Dawley rats weighing approximately 150 g. […] Ten rats from each group were autopsied and the organs and some body tissues examined by macroscopic and microscopic techniques.

physchem = conditions: water
haemolysis = conditions: cited from earlier work
[6] = test system: rats, rabbits and chickens; conditions: cited from earlier work
[7] = rats, rabbits and chickens; cited from earlier work

## C[C@@H]1CC[C@@]2(OC1)O[C@H]1C[C@H]3[C@@H]4CC[C@H]5C[C@@H](O[C@@H]6O[C@H](CO)[C@@H](O)[C@H](O)[C@H]6O)CC[C@]5(C)[C@H]4CC[C@]3(C)[C@H]1[C@@H]2C [Tigogenyl Glucoside, tigogenyl β-D-glucoside]
[1]
  reduction in acute oedema formation: 10-40%

## C[C@@H]1CC[C@@]2(OC1)O[C@H]1C[C@H]3[C@@H]4CC[C@H]5C[C@@H](O[C@@H]6O[C@H](CO)[C@@H](O)[C@H](O)[C@H]6O)CC[C@]5(C)[C@H]4CC(=O)[C@]3(C)[C@H]1[C@@H]2C [Hecogenyl Glucoside, hecogenyl β-D-glucoside]
[2]
  AORTIC THROMBI Present in % of rats: 50%
  AORTIC THROMBI Degree of severity: 1,38 (± 1,51)
[3]
  CORNEAL LESIONS Degree of severity: 0,89
  CORNEAL LESIONS Present in % of rats, day 1: 0%
  CORNEAL LESIONS Present in % of rats, day 6: 87,5%
  CORNEAL LESIONS Present in % of rats, day 8: 100%
  CORNEAL LESIONS Present in % of rats, day 12: 100%
  CORNEAL LESIONS Present in % of rats, day 15: 100%
  CORNEAL LESIONS Present in % of rats, day 19: 20%
  CORNEAL LESIONS Present in % of rats, day 20: 0%
[1]
  reduction in acute oedema formation: 10-40%
Sprague-Dawley rats [4]
  tolerability: well tolerated
Sprague-Dawley rats [5]; 0,1% in chow
  mortality: No mortality occurred
Sprague-Dawley rats [5]; 0,1% in chow, autopsy, macroscopic and microscopic
  drug-related pathological changes: No drug-related pathological changes were detected in any tissues
physchem
  solubility: ~5 µg/mL (≈ 8.43 µM)
haemolysis
  in vitro haemolytic effects: without showing the usual in vitro haemolytic effects

## C[C@@H]1CC[C@@]2(OC1)O[C@H]1C[C@H]3[C@@H]4CC=C5C[C@@H](O[C@@H]6O[C@H](CO)[C@@H](O)[C@H](O)[C@H]6O)CC[C@]5(C)[C@H]4CC[C@]3(C)[C@H]1[C@@H]2C [Diosgenyl Glucoside, diosgenyl β-D-glucoside]
[2]
  AORTIC THROMBI Present in % of rats: 44%
  AORTIC THROMBI Degree of severity: 1,33 (± 1,66)
[3]
  CORNEAL LESIONS Degree of severity: 1,05
  CORNEAL LESIONS Present in % of rats, day 1: 0%
  CORNEAL LESIONS Present in % of rats, day 6: 85,7%
  CORNEAL LESIONS Present in % of rats, day 8: 100%
  CORNEAL LESIONS Present in % of rats, day 12: 100%
  CORNEAL LESIONS Present in % of rats, day 15: 50%
  CORNEAL LESIONS Present in % of rats, day 19: 25%
  CORNEAL LESIONS Present in % of rats, day 20: 0%
[1]
  reduction in acute oedema formation: 10-40%
Sprague-Dawley rats [5]; 0,1% in chow
  mortality: No mortality occurred
Sprague-Dawley rats [5]; rat, in vivo
  drug-related pathological changes: No drug-related pathological changes were detected in any tissues
haemolysis; in vitro, reference (6)
  in vitro haemolytic effects: without showing the usual in vitro haemolytic effects
Water solubility; 25° C.
  solubility: ~5 µg/mL (≈ 8.67 µM)
Water solubility; room temperature, colloidal solution
  solubility: 5 µg/mL (≈ 8.67 µM)

## C[C@@H]1CC[C@@]2(OC1)O[C@H]1C[C@H]3[C@@H]4CC=C5C[C@@H](O)CC[C@]5(C)[C@H]4CC[C@]3(C)[C@H]1[C@@H]2C [diosgenin]
[6]
  toxicity: non-toxic
[7]
  serum cholesterol levels: lowers the serum cholesterol levels

## CC[C@H](CC[C@@H](C)[C@H]1CC[C@H]2[C@@H]3CC=C4C[C@@H](O[C@@H]5O[C@H](CO)[C@@H](O)[C@H](O)[C@H]5O)CC[C@]4(C)[C@H]3CC[C@]12C)C(C)C [Sitosteryl-β-D-Glucoside, reference compound]
[2]
  AORTIC THROMBI Present in % of rats: 70%
  AORTIC THROMBI Degree of severity: 2,00 (± 1,63)
[3]
  CORNEAL LESIONS Degree of severity: 1,20
  CORNEAL LESIONS Present in % of rats, day 1: 20%
  CORNEAL LESIONS Present in % of rats, day 6: 90%
  CORNEAL LESIONS Present in % of rats, day 8: 100%
  CORNEAL LESIONS Present in % of rats, day 12: 100%
  CORNEAL LESIONS Present in % of rats, day 15: 17%
  CORNEAL LESIONS Present in % of rats, day 19: 25%
  CORNEAL LESIONS Present in % of rats, day 20: 0%
